Turning to `O=c1cc(-c2ccccc2)oc(=O)[nH]1`, the melting point was more than 210 °C.
The molecule `OCCN1CC=C(c2c[nH]c3ccccc23)CC1` yielded a melting point of 164 to 165 °C.
Molecule `Cc1ccc(-c2nnc(N3CCCCCC3)nc2-c2ccc(C)cc2)cc1` returned a melting point of 162 to 164 °C.
As to `O=C(CCCCc1ccc2c(c1)OCO2)NC1CCCCC1`, the melting point fell in the range of 145 to 146 °C.
In the case of `CNc1nnc(C(C)(CCl)CCl)s1` it was 105 to 107 °C.
With `CC(C)(C)OC(=O)NCC(=O)N1CCC[C@H]1C(=O)O` the figure was 140 to 143 °C; with `CC(C)Nc1cccnc1N1CCN(C(=O)c2ccc(C(=O)NC[C@H](C)O)cc2)CC1`, 135 °C; with `CC1(C)Oc2cc(N)c([N+](=O)[O-])cc2[C@@H](N2CCCC2=O)[C@@H]1O` (relative stereo), 310 to 313 °C.
With `Fc1ccccc1N1CC2(CCNCC2)c2ccc(Cl)cc21` the figure was 174 to 176 °C.
Regarding `O=S1(=O)CCN2C=CC=C(c3ccc(Oc4ccc(O)cc4)cc3)C2=N1`, the melting point lay within 289 to 290 °C.
In the case of `CCOC(=O)c1cc(Br)cc2c(=O)cc(-c3cccc(OCc4ccc5ccccc5c4)c3)oc12` it was 211 to 213 °C; in that of `O=C(O)CC1c2ccccc2COc2ccccc21` (configuration not stated), 114 to 115 °C.
As for `COc1cc(C=CC(=O)CCc2ccco2)ccc1O`, the melting point was 82 to 84 °C.
In the case of `Cc1csc2c1c(-c1ccccc1Cl)nc(=O)n2C` it was 268 °C; in that of `COC(=O)Cc1c(C)nc(C)nc1Cl`, 53 to 54 °C; in that of `O=C(CS(=O)(=O)N1CC=C(c2ccc(-c3ccccc3)cc2)CC1)NO`, 216 to 218 °C.
In the case of `Cc1c(CC2CCc3c(c4ccccc4n3C)C2=O)ncn1S(=O)(=O)N(C)C` (configuration not stated) it was 122 to 124 °C.
With `O=C1CN(CC2CCN(c3ncc4ncnc(Nc5ccc(F)c(Cl)c5)c4n3)CC2)CCO1` the figure was 202 to 204 °C; with `CCCC1(Cl)Cc2cc(OCC(=O)O)c(Cl)c(Cl)c2C1=O` (configuration not stated), 185 to 187 °C.
As to `COC(=O)c1cccc(Cl)c1NC(C)=O`, the melting point was in the range of 135 to 136 °C.
In the case of `CCOc1cccc(C(O)c2ncccc2OC)c1` (configuration not stated) it was 104 to 106 °C; in that of `CC1(C)CCC(C)(C)c2cc(-c3cc(-c4ccc(C(=O)O)cc4)ccc3O)ccc21`, 240 to 241 °C.
`O=C(OCc1ccccc1)c1ccc(O)c(CO)c1` gave a melting point of 109 to 110 °C.
In the case of `COc1ccc2ncc(CO)c(O)c2c1` it was 327 to 334 °C; in that of `CNC(=O)NCCN1CCC(Nc2nc3ccccc3n2Cc2ccc(C)o2)CC1`, 200 °C; in that of `CCOC(=O)C(C)C(O)(c1ccc(OC)cc1)c1ccc(OC)cc1` (configuration not stated), 67 to 69 °C.
With `OC1(Cn2cncn2)CCCCC12OC2c1ccc(Cl)cc1` (configuration not stated) the figure was 150 °C; with `O=C(NCCc1ccccc1)c1c(Cl)ccc2nc(N3CCC(C(=O)O)CC3)ccc12`, 260 to 262 °C.
`COP(=O)(OC)C(O)=Cc1ccc2c(c1)C(=O)Cc1ccccc1O2` had a melting point of 118 °C.
As to `CCn1ncc2c3onc(-c4cccc(C)c4)c3cnc21`, the melting point lay in the range of 122 to 123 °C.
Molecule `CC(=O)OC1CSC(Oc2cc(Br)cnc2F)C(OC(C)=O)C1OC(C)=O` (configuration not stated) had a melting point of 120 to 122 °C.
In the case of `CCc1cn(C2CCC(CNC(=O)Cc3c(Cl)cccc3Cl)O2)c(=O)[nH]c1=O` (configuration not stated) it was 237 to 238 °C.
With `Cn1cc(C2=C(c3ccncc3)C(=O)OC2=O)c2ccccc21` the figure was 217 to 219 °C.
In the case of `O=C(Nc1cc2nc(-c3ccc(C(=O)C45CC6CC(CC(C6)C4)C5)cc3)[nH]c2cn1)c1ccccn1` it was 305 °C; in that of `CC(C)(C)N(CC(O)CONC(=O)NC1CCCCC1)C(=O)NC1CCCCC1` (configuration not stated), 151 to 152 °C.
Consider `O=C(c1ccc(F)cc1)N1CCC[C@H](c2nc(-c3ccncc3)no2)C1`, for which the melting point was in the range of 113 to 115 °C.
`Cc1cccc(NC(=O)NC2N=C(c3ccccc3F)c3ccccc3N(Cc3nc4ccccc4o3)C2=O)c1` (racemic) registered a melting point of 209 to 210 °C.
For `Oc1ccc(-c2nnc(CSCCOc3ccccc3)n2Cc2ccccc2)cc1`, the melting point lay in the range of 64 to 66 °C.
The molecule `COc1cc(COc2nn(Cc3ccccc3)cc2C=O)ccc1OCc1nc(-c2ccccc2)oc1C` registered a melting point of 151 to 152 °C.
In the case of `CN(C(=O)c1ccc(N2CCOCC2)cc1)[C@@H]1CCN(C(=O)C2CCN(C(=O)C3(O)CC3)CC2)C[C@H]1c1ccc(Cl)c(Cl)c1` it was 151 to 153 °C; in that of `CC(C)c1ccc2c(c1)[C@@H](NC(=O)c1ccc(F)cc1)[C@H](O)C(C)(C)O2` (relative stereo), 235 to 236 °C; in that of `c1ccc(-c2nc3cc(COc4ccc(CCCn5ccnc5)cc4)ccc3o2)cc1`, 137 to 138 °C.
Molecule `Cc1ccc2c(n1)Oc1ccc(C(C)C(=O)OCC(=O)N(C)C)cc1C2` (configuration not stated) showed a melting point of 150 to 151 °C.
In turn, `CC(C)(C(=O)O)N1COC(C(F)F)=C(c2ccccc2)C1=O` yielded a melting point of 149 to 151 °C.
`COc1cccc(N(C)C(=O)c2cnc(Br)s2)c1` came in with a melting point of 106 °C.
With `CC1=NN(C(=O)NS(=O)(=O)c2ncccc2C(F)(F)F)C(C)(c2ccccc2)C1` (configuration not stated) the figure was 152 to 153 °C; with `Cc1cccc2c1N(CC(=O)N1CC3CCC(CC3)C1)CC(NC(=O)Nc1cccc(Br)c1)N=C2c1ccccc1F` (configuration not stated), more than 250 °C; with `O=C(CCc1nc(-c2ccc(Cl)cc2)co1)OCc1ccccc1`, 66 to 67 °C.
In turn, `O=C(Cc1cccs1)NCCCSc1ccncc1` registered a melting point of 62 to 63 °C.
In the case of `CC(C)(C)C(O)Cn1c(-c2ccccc2[N+](=O)[O-])nc2ccccc21` (configuration not stated), the melting point was 192 to 193 °C.
Turning to `Cc1cc(N)nc(CCc2nc3cc(-c4ccc(F)cc4)cnc3[nH]2)c1`, the melting point turned out to be 228 °C.
In turn, `Nc1cc(N2CCN(C34CC5CC(CC(C5)C3)C4)CC2)nc(N)n1` came in with a melting point of 265 to 268 °C.
With `CCc1nnc2c(Cl)nc3cc(OC)ccc3n12` the figure was 173 to 175 °C; with `O=C(N[C@H]1CCN(C(=O)c2cc(C(F)(F)F)cc(C(F)(F)F)c2)[C@H](Cc2ccc(Cl)cc2)C1)c1cc(=O)c2ccc(Cl)cc2o1`, 218 to 220 °C; with `CC(=O)Nc1ccc(/C=C/C(=O)NCC(=O)N(C)c2ccc(C)c(CO)c2C)cn1`, 215 to 216 °C.
With `COc1ccc2c(c1)c(N1CCN(C#N)CC1)nn2S(=O)(=O)c1ccccc1` the figure was 171 to 173 °C.
For the molecule `CCN(CC)C(=O)COc1ccc(S(=O)(=O)c2ccc(O)cc2)cc1`, the melting point was 223 to 226 °C.
In the case of `CCC(C)(CC)NC(=NC#N)Nc1cccnc1` it was 184 to 186 °C.
In the case of `Cc1ccc(Cc2cnc(NCCCNc3cccc(C)n3)[nH]c2=O)cn1` it was 113 to 120 °C; in that of `CCOC(=O)C(C)(Cc1ccc([N+](=O)[O-])cc1)C(=O)OCC`, 59 to 61 °C.
For the molecule `N#Cc1cn(C(CO)CCc2ccccc2)cn1` (configuration not stated), the melting point lay in the range of 111 to 115 °C.
`N=C(CF)Nc1cccc(C(N)=O)c1` came in with a melting point of 219 to 220 °C.
In the case of `CC(=O)Oc1ccc2c3c(cc(Cl)c2c1)-c1cc(F)c(OC(C)=O)cc1CO3` it was 194 to 198 °C; in that of `O=C(CBr)OCC1OC(Sc2ccccc2)C(OCc2ccccc2)C(OCc2ccccc2)C1OCc1ccccc1` (configuration not stated), 85 to 87 °C.
The molecule `NC(=S)NC(c1ccccc1)c1ccc(Cl)cc1` (configuration not stated) registered a melting point of 173 to 175 °C.
In the case of `CCOC(=O)COc1ccc(-c2nn(-c3ccccc3)c3ncccc23)cc1`, the melting point is 118 to 120 °C.
`Nc1nc(-c2cc(Cl)nc(Cl)c2)cs1` gave a melting point of 239 to 247 °C.
Take `O=C1Nc2cc(-c3ccccc3)ccc2OC1CCO` (configuration not stated): the melting point fell in the range of 170 to 171 °C.
In the case of `CCOC(=O)CCc1cc(O)ccc1-c1ccc(-c2cccnc2)c(CO)c1` it was 46 to 48 °C; in that of `COc1ccc2cc(-c3ccc(O)cc3)[nH]c(=O)c2c1`, 255 °C; in that of `CCCn1c(=O)n(-c2ccc3c(c2)OCO3)c2ncc(F)cc21`, 153 to 154 °C.
In the case of `COP(=O)(Cc1ccc(-c2ccccc2)cc1)OC`, the melting point lay within 70 to 71 °C.
With `Cc1nc(Cl)c([N+](=O)[O-])c(N(c2ccccc2)c2ccccc2)n1`, the melting point lay in the range of 128 to 130 °C.
Molecule `COc1cc(C(=O)O)cc(OC)c1Cl` gave a melting point of 102 to 103 °C.
In the case of `Cn1cncc1C(O)(c1ccc(Cl)cc1)c1ccc2nc(-c3cccnc3)nc(-c3cccc(Cl)c3)c2c1` (configuration not stated) it was 178 °C; in that of `Cc1ccc(C(=O)C2(O)CCCCC2)cc1C`, 103 to 104 °C.
In the case of `CCOc1ccc(F)c(N=Cc2cnc(SC)nc2NC2CCCC2)c1F` it was 136 to 141 °C.
With `CCCCCCCCCC1OC1C(=O)O` (configuration not stated) the figure was 56 to 57 °C; with `CC1(C)CCC(C)(C)c2cc(C(=O)Nc3ccc(F)cc3)ccc21`, 163 to 165 °C.
On to `CCN(c1cccc(-c2ccnc3c([N+](=O)[O-])cnn23)c1)S(=O)(=O)c1ccccc1`, for which the melting point lay within 189 to 191 °C.
Consider `O=C1C=CCC2=C3C(=CCN3C13COc1cc4c(cc13)OCO4)CCC2` (configuration not stated), for which the melting point is 176 to 177 °C.
With `COCN1C(C)=C(C(=O)OCOC(=O)C(C)(C)C)C(c2ccccc2C(F)(F)F)C(C(=O)OCOC(=O)C(C)(C)C)=C1C` the figure was 96 to 97 °C; with `COc1cc(Cc2nccc3c(OC(C)=O)cc(OC(C)=O)cc23)cc(OC)c1OC`, 118 to 120 °C.
Molecule `Cn1cc(-c2ccc(Cl)cc2)c(=O)c(-c2cccc(C(F)(F)F)c2)c1` gave a melting point of 153 to 155 °C.
The molecule `COc1ccc(CNc2ncnc(Cl)c2N)cc1OC` had a melting point of 185 to 188 °C.
Molecule `Cc1cc(SCc2cccc3cn(-c4ccc(C(F)(F)F)cc4)nc23)ccc1OCC(=O)O` yielded a melting point of 79 to 81 °C.
With `CC(C)(C)OC(=O)NCCCC(COC(=O)Oc1ccc([N+](=O)[O-])cc1)NC(=O)OCC1c2ccccc2-c2ccccc21` (configuration not stated) the figure was 140 to 142 °C.

For orientation: melting point means the temperature, or range, at which the solid turns liquid.

Values taken from a melting point compilation (Tetko et al.; mined from patent text by program, amines drawn as free bases though some values may be those of a salt).
